The values that follow come from patent US10350315B2, “Quinoline-3-carboxamide compounds and their use in diagnosis” (Westfaelische Wihelms-Universitaet Muenster, priority 2014, dated 2019).

The target of experiment [1] is T1, S100A9 (Mus musculus, UniProt P31725).
T1 construct: from tissue; host or cells: living mice (inflamed ear, joints) and explanted mouse heart, aorta and lungs
T1 sequence (P31725 2-113 limits assumed): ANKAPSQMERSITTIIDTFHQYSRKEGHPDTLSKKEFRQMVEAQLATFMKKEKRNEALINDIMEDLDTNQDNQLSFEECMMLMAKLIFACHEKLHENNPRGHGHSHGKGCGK
As to the kind of experiment: Atherosclerosis mouse model (HypoE, HFC diet), FRI of the explanted aorta. Type of experiment: in vivo, SR-BI−/−/apoER61h/h mice (HypoE). To be noted: 10 days HFC diet, 2 h p.i. The method, then:
FIG. 8: Accumulation of Cy5.5-CES271 in a mouse model of atherosclerosis in a HypoE mouse, 10 days on HFC diet.
Atherosclerosis is an inflammatory disease of the vessel wall. SR-BI^−/−/apoE^R61 h/h-mice (HypoE) are known to develop atherosclerotic lesions especially when set on a high fat and high choleresterol diet (HFC). Typical predeliction site is the aortic arch. 12-14 week old mice were set on HFC diet for 10 days. At day 10 of HFC diet Cy5.5-CES271 was injected i.v., the mice were sacrificed two hours p.i., the aortic arches were explanted, and measured ex-vivo by FRI.
The hearts and aorta were fixed overnight in 4% paraformaldehyde and embedded in paraffin. Sections measuring 4 μm in thickness were analyzed. For immunohistochemistry, paraffin skin sections (4 μm) were dewaxed, blocked with 10% fetal bovine serum, and incubated with rabbit anti-S100A9 or MAC-3 antibodies for 1 h at room temperature followed by a goat-anti-rabbit biotinylated antibody and 3,3′ diaminobenzidine (DAB).

Experiment [2] deals with T1, S100A9. As to the kind of experiment: Irritant contact dermatitis (ICD) mouse model, fluorescence reflectance imaging (FRI). To be noted: FRI 3 h after tracer application. Type of experiment: in vivo, mice. An excerpt: FIG. 6: Accumulation of Cy5.5-CES271 in a mouse model of contact dermatitis (ICD). (A) FRI images showing accumulation of a quinoline-3-carboxamide compound covalently linked to a label (Cy5.5-CES271) in a mouse model of contact dermatitis of the left ear in WT (left) and S100A9 deficient (right) mice. (B) FRI images and S100A9 staining showing accumulation of a quinoline-3-carboxamide compound covalently linked to a label (Cy5.5-CES271) in a mouse model of contact dermatitis.
FIG. 21: FRI images of Cy5.5-CES271 and Cy7-CES271 in a mouse model of contact dermatitis (ICD). (A) Representative Fluorescence Reflectance images of a Cy7-CES271 and Cy5.5-aS100A9 coinjected animal.
In vivo fluorescence reflectance imaging was performed with an IVIS Spectrum small-animal imaging system (Xenogen). Images were acquired and analyzed using Living Image 4.X software (Xenogen). […] Fluorescence emission was measured by Fluorescence emission radiance per incident excitation irradiance (p/sec/cm2/sr/μW/cm2).
ICD was induced by the application of 20 μl 1% croton oil in olive oil-acetone (1:4) to the ventral surface of the left ear of mice for 24 h (n=5 per group), whereas the right ear served as a control. […] In the Cy7 channel the quantum yield is much lower compared to the Cy5.5 channel, which means that the recorded signal with Cy5.5-CES271 is higher than compared to […] (right image; FIG. 21). […]

Experiment [3] has as its target T1, S100A9. As to the kind of experiment: Myocardial infarction mouse model, FRI of the explanted heart. Type of experiment: in vivo, C57BI/6 mouse. The conditions noted are these: one day post LAD occlusion, two hours after i.v. injection of 2 nmol. How it is done:
FIG. 7: Accumulation of Cy5.5-CES271 in a mouse model of myocardial infarction. One day post occlusion of the LAD in a C57BI/6 mouse: FRI of the explanted heart (longitudinal mid-infarction cut) two hours after i.v. injection of 2 nmol Cy5.5-CES271. […] Furthermore, absence of S100A9 in the remote myocardium (RM) is accompanied by the lack of Cy5.5-CES271.
Myocardial infarction was induced by opening the chest of a mouse and transient ligation of the left coronary artery for 60 minutes. The ischemic event triggers acute inflammatory response to the tissue injury in the first hours/days followed by a remodeling process (involving less intense inflammatory processes) after about one week. FRI was performed one day after the surgical intervention to assess the intense acute inflammatory response and the images in FIG. 7 were acquired two hours after injection of 2 nmol Cy5.5-CES-271. […] FRI of the explanted heart (longitudinal mid-infarction cut) two hours after i.v. injection of 2 nmol Cy5.5-CES271 is shown.

“3-ethyl-2((1E,3E,5E)-5-(3-(1-(5-ethyl-4-hydroxy-1-methyl-2-oxo-1,2-dihydroquinolin-3-yl)-1,15-dioxo-2-phenyl-5,8,11-trioxa-2,14-diazanonadecan-19-yl)-1,1-dimethyl-6,8-disulfonato-1H-benzo[e]indol-2(3H)-ylidene)penta-1,3-dien-1-yl)-1,1-dimethyl-1H-benzo[e]indol-3-ium-6,8-disulfonate [Cy5.5-CES271]”: the “Accumulation in plaque lesions of the explanted aorta” value in experiment [1] is given as “accumulation”. Also, the “Accumulation in the inflamed ear” value is listed as “not observed” in experiment [2] (S100A9−/− deficient mice) and “significant accumulation” in experiment [2] (WT mice, croton oil on left ear). For the same substance, in experiment [3], the “Accumulation in the myocardial infarction (MI)” value is reported as “accumulates in the myocardial infarction”. The “Accumulation in the remote myocardium (RM)” value in experiment [3] is listed as “lack of Cy5.5-CES271 accumulation”.
